Among the data in patent US11524943B1 (Vivace Therapeutics, Inc., priority 2017, dated 2022) are IC50 values, retold here.

The assay concerns HEK293T cells stably transfected with 8×TBD luciferase reporter and pRLTK. The assay is described as follows: YAP Reporter Assay (8×TBD firefly luciferase reporter). The format is cell-based. Particulars: Homo sapiens, HEK-293T; HEK293T 8×TBD reporter cells, 24-hr incubation, top concentration 3 μM, 1:3 dilution, 10 points. Here is the method: HEK293T cells stably transfected with 8×TBD luciferase reporter and pRLTK in 384-well plates were treated with the test compounds, starting from 3 μM (final concentration in assay plate), 1:3 dilution, and 10 points in quadruplicates. Post 24-hr incubation with compounds at 37° C. and 5% CO2, cells were lysed and 8×TBD-driven firefly luciferase and control TK-driven renilla luciferase activities were measured using Promega Dual-Luciferase Reporter Assay System.
Reagents: The reagents used for this study are: DMEM: Invitrogen #11960077, Dual-Glo Luciferase Assay System: Promega-E2980, Puromycin Dihydrochloride: Invitrogen-A1113803, 384-well plate: PerkinElmer-6007480, L-GLUTAMINE: Invitrogen-25030164, Hygromycin B: Invitrogen-10687010, and Penicillin-Streptomycin: Merk-TMS-AB2-C
Media: The media used for this assay were: Culture Medium: DMEM+1 ug/mL puromycin+200 ug/mL hygromycin (with 10% FBS+1 mM L-glutamine); and Assay Medium: DMEM (with 10% FBS+1 mM L-glutamine+1×P/S).
Cell Plating: The appropriate media was warmed at 37° C. by water bath: Culture Medium, Assay Medium, 1*D-PBS, 0.05% trypsin-EDTA. The cells were trypsinized after removing all media, then washed with 1* sterile D-PBS and then with 2 ml 0.05% trypsin-EDTA. The cells were then incubated at RT for one minute. Then 10 ml/75 cm2 flask Assay Medium was added to each flask. Using a 10 ml pipette, the cells were then gently resuspended in the media, until the clumps completely disappeared. The cells were then transferred into 50 ml centrifuge tubes and were centrifuged at 800 rpm for 5 mins. The medium was removed and the cells were resuspended with Assay Medium. An aliquot of cells was used to count the cell density (cells/ml). The cell suspension was then diluted with Assay Medium to a concentration of 6×10^4 cells/ml. 50 ul cells suspension was then plated to 384-well plate (PerkinElmer-6007480), 3×10^3 cells/well and the cells were incubated in an incubator at 37° C., 5% CO2.
Compound Treatment: In the afternoon (incubation of the plate with 3-4 hrs), the test compounds were added by Echo, starting from 3 uM (final concentration in the assay plate), 1:3 dilution, 10 points, quadruplicates. The plate was placed at 37° C., 5% CO2 incubator for 24 hrs.
Detection: The Dual-Glo Luciferase Reagent was prepared by transferring the contents of one bottle of Dual-Glo Luciferase Buffer to one bottle of Dual-Glo Luciferase Substrate to create the Dual-Glo Luciferase Reagent. Mixing was performed by inversion until the substrate was thoroughly dissolved. After mixing, the reagent was aliquoted into 15 ml tubes. In the afternoon (24 hrs post compound treatment), the DMEM+ medium in the 384 well plates were aspirated by Microplate Washer.
Measuring firefly luciferase activity: 20 ul Dual-Glo Luciferase Reagent was added to the 384-well plates. The plates were protected from light to prevent interference with the assay. The plates were shaken for 1 min followed centrifuging plates at 1000 rpm for 30 seconds. After waiting at least 10 minutes, the firefly luminescence was measured by Envision.
Measuring renilla luciferase activity: 20 ul Stop-Glo Reagent was added to the 384-well plates. The plates were shaken for 1 min and then centrifuged at 1000 rpm for 30 seconds. After waiting at least 10 minutes, the renilla luminescence was measured by Envision.
Compound IC50 and maximum inhibition on the firefly luciferase and renilla luciferase activities were reported separately.

As for `O=C(O)c1ccc(Nc2ccc(C(F)(F)F)cc2)c(-c2nccs2)c1` [Compound 42, 3-(thiazol-2-yl)-4-((4-(trifluoromethyl)phenyl)amino) benzoic acid], the IC50 is ≤ 100 nM. With `O=C(O)c1ccc(Nc2ccc(C(F)(F)F)cc2)c(-c2nnn(Cc3ccccc3F)n2)c1` [Compound 25, 3-(2-(2-fluorobenzyl)-2H-tetrazol-5-yl)-4-((4-(trifluoromethyl)phenyl)amino) benzoic acid], the IC50 is ≤ 100 nM. The figure for `Cn1nnc(-c2cc(C(=O)NCCOCCOCCNC(=O)OC(C)(C)C)ccc2Nc2ccc(C(F)(F)F)cc2)n1` [Compound 47, tert-butyl (2-(2-(2-(3-(2-methyl-2H-tetrazol-5-yl)-4-((4-(trifluoromethyl)phenyl)amino)benzamido)ethoxy)ethoxy)ethyl)carbamate] is 100 to 1000 nM; for `CCN(CC)C(=O)c1ccc(Nc2cccc(C(F)(F)F)c2)c(-c2nnn(C)n2)c1` [Compound 20, N,N-diethyl-3-(2-methyl-2H-tetrazol-5-yl)-4-((3-(trifluoromethyl)phenyl)amino) benzamide] it is 100 to 1000 nM; for `CC(=O)NCCOCCOCCNC(=O)c1ccc(Nc2ccc(C(F)(F)F)cc2)c(-c2nnn(C)n2)c1` [Compound 45, N-(2-(2-(2-acetamidoethoxy)ethoxy)ethyl)-3-(2-methyl-2H-tetrazol-5-yl)-4-((4-(trifluoromethyl)phenyl)amino) benzamide] it is ≤ 100 nM. The figure for `Cn1cnc(-c2cc(C(=O)O)ccc2Nc2ccc(C(F)(F)F)cc2)c1` [Compound 28, 3-(1-methyl-1H-imidazol-4-yl)-4-((4-(trifluoromethyl)phenyl)amino) benzoic acid] is ≤ 100 nM; for `CCNC(=O)c1ccc(Nc2cccc(C(F)(F)F)c2)c(-c2nnn(C)n2)c1` [Compound 22, N-ethyl-3-(2-methyl-2H-tetrazol-5-yl)-4-((3-(trifluoromethyl)phenyl)amino) benzamide] it is ≤ 100 nM; for `Cn1nnc(-c2cc(C(=O)NS(C)(=O)=O)ccc2Nc2ccc(C(F)(F)F)cc2)n1` [Compound 15, 3-(2-methyl-2H-tetrazol-5-yl)-N-(methylsulfonyl)-4-((4-(trifluoromethyl)phenyl)amino) benzamide] it is ≤ 100 nM.

As for `Cn1nnc(-c2cc(C(=O)NS(C)(=O)=O)ccc2Nc2cccc(C(F)(F)F)c2)n1` [Compound 23, 3-(2-methyl-2H-tetrazol-5-yl)-N-(methylsulfonyl)-4-((3-(trifluoromethyl)phenyl)amino) benzamide], the IC50 is ≤ 100 nM. The figure for `COC(=O)c1ccc(Nc2cccc(C(F)(F)F)c2)c(-c2nnn(C)n2)c1` [Compound 2, methyl 3-(2-methyl-2H-telrazol-5-yl)-4-((3-(trifluoromethyl)phenyl)amino)benzoate] is ≤ 100 nM. As for `COc1ccnc(-c2cc(C(=O)O)ccc2Nc2ccc(C(F)(F)F)cc2)c1` [Compound 50], the figure is ≤ 100 nM; as for `Cn1nnc(-c2cc(C(N)=O)ccc2Nc2cccc(C(F)(F)F)c2)n1` [Compound 6, 3-(2-methyl-2H-tetrazol-5-yl)-4-((3-(trifluoromethyl)phenyl)amino) benzamide], ≤ 100 nM; as for `COC(=O)c1ccc(Nc2ccc(C(F)(F)F)cc2)c(-c2ccnc(N)c2)c1` [Compound 34, methyl 3-(2-amino-4-pyridyl)-4-[4-(trifluoromethyl)anilino] benzoate], ≤ 100 nM. Compound `COC(=O)c1ccc(Nc2cccc(C(F)(F)F)c2)c(-c2nnn(Cc3ccccc3F)n2)c1` [Compound 26, methyl 3-(2-(2-fluorobenzyl)-2H-tetrazol-5-yl)-4-((3-(trifluoromethyl)phenyl)amino) benzoate] showed an IC50 of 100 to 1000 nM. For the compound `COCC(=O)NCCOCCOCCNC(=O)c1ccc(Nc2ccc(C(F)(F)F)cc2)c(-c2nnn(C)n2)c1` [Compound 64, 3-(2-methyl-2H-tetrazol-5-yl)-N-(4-oxo-2,8,11-trioxa-5-azatridecan-13-yl)-4-((4-(trifluoromethyl)phenyl)amino) benzamide], the IC50 was 100 to 1000 nM. In turn, `CCN(CC)C(=O)c1ccc(Nc2ccc(C(F)(F)F)cc2)c(-c2nnn(C)n2)c1` [Compound 17, N,N-diethyl-3-(2-methyl-2H-tetrazol-5-yl)-4-((4-(trifluoromethyl)phenyl)amino) benzamide] yielded an IC50 of 100 to 1000 nM. As for `O=C(O)c1ccc(Nc2ccc(C(F)(F)F)cc2)c(-c2nnc(C3CC3)o2)c1` [Compound 54, 3-(5-cyclopropyl-1,3,4-oxadiazol-2-yl)-4-((4-(trifluoromethyl)phenyl)amino) benzoic acid], the figure is ≤ 100 nM; as for `Cn1nnc(-c2cc(C(N)=O)ccc2Nc2ccc(C(F)(F)F)cc2)n1` [Compound 7, 3-(2-methyl-2H-tetrazol-5-yl)-4-((4-(trifluoromethyl)phenyl)amino) benzamide], ≤ 100 nM; as for `Nc1cc(-c2cc(C(=O)O)ccc2Nc2ccc(C(F)(F)F)cc2)ccn1` [Compound 30, 3-(2-aminopyridin-4-yl)-4-((4-(trifluoromethyl)phenyl)amino) benzoic acid], ≤ 100 nM.

Take `O=C(O)c1ccc(Nc2cccc(C(F)(F)F)c2)c(-c2nnn(Cc3ccccc3F)n2)c1` [Compound 27, 3-(2-(2-fluorobenzyl)-2H-tetrazol-5-yl)-4-((3-(trifluoromethyl)phenyl)amino) benzoic acid]: the IC50 is ≤ 100 nM. For `O=C(O)c1ccc(Nc2ccc(C(F)(F)F)cc2)c(-c2ncccn2)c1` [Compound 40, 3-(pyrimidin-2-yl)-4-((4-(trifluoromethyl)phenyl)amino) benzoic acid], the IC50 is ≤ 100 nM. As for `COCCC(=O)NCCOCCOCCNC(=O)c1ccc(Nc2ccc(C(F)(F)F)cc2)c(-c2nnn(C)n2)c1` [Compound 65, 3-(2-methyl-2H-tetrazol-5-yl)-N-(5-oxo-2,9,12-trioxa-6-azatetradecan-14-yl)-4-((4-(trifluoromethyl)phenyl)amino) benzamide], the figure is 100 to 1000 nM; as for `Cn1cnc(-c2cc(C(=O)NS(N)(=O)=O)ccc2Nc2ccc(C(F)(F)F)cc2)c1` [Compound 38, 3-(1-methylimidazol-4-yl)-N-sulfamoyl-4-[4-(trifluoromethyl)anilino] benzamide], ≤ 100 nM. The figure for `O=C(O)c1ccc(Nc2ccc(C(F)(F)F)cc2)c(-c2nnc(C3CC3)s2)c1` [Compound 59, 3-(5-cyclopropyl-1,3,4-thiadiazol-2-yl)-4-((4-(trifluoromethyl)phenyl)amino) benzoic acid] is ≤ 100 nM; for `Cn1nnc(-c2cc(C(=O)NCCOCCOCCN)ccc2Nc2ccc(C(F)(F)F)cc2)n1` [Compound 44, N-(2-(2-(2-aminoethoxy)ethoxy)ethyl)-3-(2-methyl-2H-tetrazol-5-yl)-4-((4-(trifluoromethyl)phenyl)amino) benzamide] it is 100 to 1000 nM; for `O=C(O)c1ccc(Nc2ccc(C(F)(F)F)cc2)c(-c2cocn2)c1` [Compound 57, 3-(oxazol-4-yl)-4-((4-(trifluoromethyl)phenyl)amino) benzoic acid] it is ≤ 100 nM. `COC(=O)c1ccc(Nc2ccc(C(F)(F)F)cc2)c(-c2cn(C)cn2)c1` [Compound 33, methyl 3-(1-methyl-1H-imidazol-4-yl)-4-((4-(trifluoromethyl)phenyl)amino)benzoate]: the half-maximal inhibitory concentration (IC50) is ≤ 100 nM.

`O=C(O)c1ccc(Nc2ccc(C(F)(F)F)cc2)c(-c2cscn2)c1` [Compound 41, 3-(thiazol-4-yl)-4-((4-(trifluoromethyl)phenyl)amino) benzoic acid]: the IC50 is ≤ 100 nM.

As for `O=C(O)c1ccc(Nc2ccc(C(F)(F)F)cc2)c(-c2ccncn2)c1` [Compound 60, 3-pyrimidin-4-yl-4-[4-(trifluoromethyl)anilino] benzoic acid], the IC50 lay within 100 to 1000 nM.
